# Source: US7825127B2, “Method for treating cancer” (Takeda Pharmaceutical Company, Limited, priority 2006, dated 2010)
# Legend:
# Assay in all cases: Sulforhodamine B cell growth inhibitory assay
# Type in all cases: cell-based
# BT-474 = BT-474 (FIG. 2A), 5 days
# Description: (§1) Sulforhodamine B staining method was used for cell growth inhibitory assay. Each cell was plated on a 96 well plate (Nunc). The next day, compound X was serially diluted and added thereto. The cell lines used and the terms of incubation of the compound are indicated separately. To immobilize the cells, 25% glutaraldehyde solution (Wako, 50 μL) was added to the culture medium (200 μL) and the mixture was left standing at room temperature for 15 min.
# (§2) The plate was then washed once with PBS (Invitrogen), 200 μL of PBS was added, 25 μL of 50% trichloroacetic acid (Wako) was added, and the mixture was left standing at 4° C. for 1 hr or longer. The plate was washed 5 times with tap water, redundant water was removed by slamming the plate against paper towels. A 1% (W/W) acetic acid solution (50 μL) containing 0.4% (w/v) Sulforhodamine B (SRB, Sigma) was added to each well and, 15 min later, the plate was washed 3 times with 1% acetic acid solution. The plate was thoroughly dried, 10 mM Tris solution was added, and the mixture was stirred well in a plate shaker, and the absorbance at 550 nm was measured (Bio-Rad, Benchmark Plus).
# SK-BR-3 = SK-BR-3 (FIG. 2B), 5 days
# Description: as §1, §2
# MCF-7 = MCF-7 (FIG. 2C), 3 days
# Description: as §1, §2
smiles,measurement,setting,value
"CC(C)(O)CC(=O)NCCn1ccc2ncnc(Nc3ccc(Oc4cccc(C(F)(F)F)c4)c(Cl)c3)c21 [compound X, N-{2-[4-({3-chloro-4-[3-(trifluoromethyl)phenoxy]phenyl}amino)-5H-pyrrolo[3,2-d]pyrimidin-5-yl]ethyl}-3-hydroxy-3-methylbutanamide]",sensitivity of cells to growth inhibition,BT-474,high-sensitive
same,sensitivity of cells to growth inhibition,SK-BR-3,high-sensitive
same,sensitivity of cells to growth inhibition,MCF-7,low-sensitive
